BindingDB's records for doi:10.7270/Q27D2X8F (n/a, 1993)
pIC50: −log10 of the molar value.

How the values were obtained:
[1] = target: T1, 5-hydroxytryptamine receptor 1A (Homo sapiens, UniProt P08908); experiment: The compound was evaluated for its ability to displace [3H]-8-OH-DPAT from 5-hydroxytryptamine 1A receptor in cellular brain membranes
T1 sequence (P08908 whole entry): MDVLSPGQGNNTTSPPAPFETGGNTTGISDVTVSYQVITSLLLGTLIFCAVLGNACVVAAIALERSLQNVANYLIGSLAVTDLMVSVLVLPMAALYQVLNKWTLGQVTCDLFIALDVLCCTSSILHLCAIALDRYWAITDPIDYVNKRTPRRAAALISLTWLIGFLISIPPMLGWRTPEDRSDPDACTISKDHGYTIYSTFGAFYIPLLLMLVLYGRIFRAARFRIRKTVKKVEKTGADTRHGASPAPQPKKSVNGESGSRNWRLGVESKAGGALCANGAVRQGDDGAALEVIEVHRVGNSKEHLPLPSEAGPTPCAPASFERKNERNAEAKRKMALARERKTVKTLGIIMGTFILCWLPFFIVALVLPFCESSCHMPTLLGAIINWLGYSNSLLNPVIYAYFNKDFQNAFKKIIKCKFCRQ

[2] = target: 5-hydroxytryptamine receptor 1B (Homo sapiens, UniProt P28222); experiment: The compound was evaluated for its ability to displace [3H]5-HT from 5-hydroxytryptamine 1B receptor in cellular brain membranes
[3] = target: Serotonin 2 (5-HT2) receptor (Homo sapiens, UniProt P28223+P28335+P41595); experiment: The compound was evaluated for its ability to displace [3H]ketanserin from 5-hydroxytryptamine 2 receptor in cellular brain membranes
Sequence of Serotonin 2 (5-HT2) receptor (P28223 whole entry): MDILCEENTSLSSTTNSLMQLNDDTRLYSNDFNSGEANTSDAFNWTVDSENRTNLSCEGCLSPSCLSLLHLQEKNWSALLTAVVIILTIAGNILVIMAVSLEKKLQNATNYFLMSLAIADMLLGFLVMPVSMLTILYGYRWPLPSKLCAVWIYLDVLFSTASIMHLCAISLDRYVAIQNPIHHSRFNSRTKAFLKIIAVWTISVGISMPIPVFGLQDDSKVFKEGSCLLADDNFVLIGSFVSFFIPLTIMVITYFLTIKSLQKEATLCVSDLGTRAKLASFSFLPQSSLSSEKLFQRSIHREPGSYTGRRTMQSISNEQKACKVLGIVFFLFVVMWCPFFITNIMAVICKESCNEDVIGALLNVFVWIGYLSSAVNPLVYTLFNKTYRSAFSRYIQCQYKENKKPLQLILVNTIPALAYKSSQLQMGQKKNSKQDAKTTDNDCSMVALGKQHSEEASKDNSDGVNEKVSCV
Sequence of Serotonin 2 (5-HT2) receptor (P41595 whole entry): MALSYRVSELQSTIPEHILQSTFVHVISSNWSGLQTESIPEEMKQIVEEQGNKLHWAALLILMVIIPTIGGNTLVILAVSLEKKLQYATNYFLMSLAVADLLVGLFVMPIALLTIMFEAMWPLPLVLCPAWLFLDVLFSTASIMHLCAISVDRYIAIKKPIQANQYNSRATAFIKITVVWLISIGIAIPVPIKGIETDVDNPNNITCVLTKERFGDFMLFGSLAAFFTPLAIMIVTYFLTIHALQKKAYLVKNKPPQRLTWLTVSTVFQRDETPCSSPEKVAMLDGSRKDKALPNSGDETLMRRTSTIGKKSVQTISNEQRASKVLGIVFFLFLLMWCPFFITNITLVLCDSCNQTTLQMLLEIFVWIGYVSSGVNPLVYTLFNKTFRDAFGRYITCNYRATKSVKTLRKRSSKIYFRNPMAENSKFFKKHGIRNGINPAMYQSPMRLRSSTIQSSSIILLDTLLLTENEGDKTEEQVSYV
Sequence of Serotonin 2 (5-HT2) receptor (P28335 whole entry): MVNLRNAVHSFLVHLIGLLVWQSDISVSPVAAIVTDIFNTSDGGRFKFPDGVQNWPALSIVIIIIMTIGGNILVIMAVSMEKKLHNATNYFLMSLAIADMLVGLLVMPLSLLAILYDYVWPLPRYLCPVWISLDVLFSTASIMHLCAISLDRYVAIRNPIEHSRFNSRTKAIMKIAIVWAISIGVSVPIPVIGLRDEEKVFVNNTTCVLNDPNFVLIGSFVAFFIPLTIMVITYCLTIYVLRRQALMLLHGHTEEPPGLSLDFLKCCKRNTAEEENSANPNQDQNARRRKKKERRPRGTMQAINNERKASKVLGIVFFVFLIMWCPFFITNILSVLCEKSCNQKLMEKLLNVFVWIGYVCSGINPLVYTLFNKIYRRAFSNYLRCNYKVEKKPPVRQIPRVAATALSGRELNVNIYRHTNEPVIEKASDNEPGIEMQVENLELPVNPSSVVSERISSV

Sequence of 5-hydroxytryptamine receptor 1B (P28222 whole entry): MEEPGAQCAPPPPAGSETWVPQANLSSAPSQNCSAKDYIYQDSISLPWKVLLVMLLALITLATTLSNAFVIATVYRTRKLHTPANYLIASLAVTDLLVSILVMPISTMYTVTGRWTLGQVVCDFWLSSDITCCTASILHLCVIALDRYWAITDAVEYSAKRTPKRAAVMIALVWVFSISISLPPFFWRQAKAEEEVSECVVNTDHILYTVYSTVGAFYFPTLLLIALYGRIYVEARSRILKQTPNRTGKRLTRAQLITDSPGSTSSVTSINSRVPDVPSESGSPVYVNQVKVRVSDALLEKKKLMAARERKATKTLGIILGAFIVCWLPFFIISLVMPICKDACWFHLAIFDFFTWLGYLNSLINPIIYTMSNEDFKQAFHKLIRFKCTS

Row | Compound | pIC50 [1] | pIC50 [2] | pIC50 [3]
1 | CCCN(CCCCNC(=O)c1cc(=O)oc2c3c4c(cc12)CCCN4CCC3)C1COc2cccc(OC)c2C1 (stereo not given) | 9.52 | 8.05 | 7.82
2 | CCCN(CCCCN1C(=O)c2ccccc2S1(=O)=O)C1COc2cccc(OC)c2C1 (stereo not given) [2-{4-[(5-Methoxy-chroman-3-yl)-propyl-amino]-butyl}-1,1-dioxo-1,2-dihydro-1lambda*6*-benzo[d]isothiazol-3-one; compound with oxalic acid] | 9.00 | 6.00 | 5.00
3 | CCCN(CCCCN1C(=O)CC2(CCCC2)CC1=O)C1COc2cccc(OC)c2C1 (stereo not given) [NSC_121851] | 9.70 | 5.30 | 8.00

The remaining lines, values ahead:

Row | pIC50 [1] | pIC50 [2] | pIC50 [3] | Compound
4 | 7.00 | 6.47 | 4.74 | CCCN(CCCCNc1ccc([N+](=O)[O-])c2nonc12)C1COc2cccc(OC)c2C1 (stereo not given)
5 | 7.30 | 6.40 | 4.52 | CCCN(CCCCN1C(=O)c2ccccc2C1=O)C1COc2cccc(OC)c2C1 (stereo not given) [2-{4-[(5-Methoxy-chroman-3-yl)-propyl-amino]-butyl}-isoindole-1,3-dione; compound with oxalic acid]
